Legend:
NCK2422 (ΔLBA0725) = assay: Phenotypic growth analysis of deletion mutant (PTS EIICBA); assay type: cell-based, Lactobacillus acidophilus; details: for growth of the ΔLBA0725 mutant (inactive PTS EIICBA): compared with background Δupp strain
Procedure: (§1) Phenotypic growth assays were performed using 1% (v/v) overnight cultures of L. acidophilus strains (Table 2) and other Lactobacillus species (Table 3) grown on SDM supplemented with 1% (w/v) glucose to inoculate 200 μL of SDM supplemented with 1% (w/v) of the examined carbohydrate (0.5% in the case of esculin) in 96-well microplate wells (Corning Costar, Corning, N.Y., USA) in duplicate or triplicate wells, respectively. The microplates were sealed with clear adhesive film, incubated at 37° C. in a Fluostar Optima microplate reader (BMG Labtech, Cary, N.C., USA), and the cell optical density (OD600) was monitored for 30 hours.
(§2) Construction of gene deletion mutants. The L. acidophilus NCFM genes LBA0225 and LBA0726, both encoding P-Bgl of glycoside hydrolase family 1 (GH1) enzymes in addition to the LBA0227 and LBA0725 genes encoding an EIIC and an EIICBA components of two PTS systems, respectively, were deleted using the upp-based counterselectable gene replacement system. Briefly, in-frame deletions were constructed by amplifying 650-750 bp of the up- and downstream flanking regions of the deletion targets with two primer pairs (e.g., LBA0225A/LBA0225B and LBA0225C/LBA0225D; Table 4). The resulting purified products were joined by splicing using overlap extension PCR (SOE-PCR63) and amplified to establish the deletion alleles. The SOE-PCR products, that include flanking restriction enzyme sites, were cloned within the BamHI and SacI/EcoRI sites of the pTRK935 integration vector and transformed into E. coli EC101. The resulting recombinant plasmids (pTRK1113-6) were confirmed by DNA sequencing and electroporated into L. acidophilus NCK1910 (Table 2) that contains the pTRK669 helper plasmid, and the recovery of the single- and double-crossover recombinants was performed as previously described. Recombinants carrying the new gene deletion alleles were isolated by colony PCR using primer pairs denoted up/down (e.g., LBA0225up/LBA0225down), which anneal to the flanking regions of the amplicons. Sequence integrity and in-frame deletions were verified by DNA sequencing employing the aforementioned primer pairs and primer denoted mid (e.g., LBA0225mid). The mutations were in-frame deletions of 90-96% of the coding regions.
To establish the functional significance of these two loci, single deletions of each PTS EII and P-Bgl gene, and a double deletion of both P-Bgl genes were constructed using the upp-based counter-selectable gene replacement system (Table 2) and the growth phenotypes of the mutant strains were analyzed (FIG. 3). Phenotypic growth analyses of deletion mutants of EII PTS transporters (FIGS. 3A, 3C, 3E, 3G, and 3I) and phospho-β-glucosidase (FIGS. 3B, 3D, 3F, 3H, and 3J) on the β-glucosides esculin, salicin, amygdalin and the disaccharides gentiobiose and cellobiose. The background Aupp strain is shown as a grey fill graph and the growth of the mutant strains is shown as: PTS EIIC (LBA0227, pink triangle), the phospho-β-glucosidase (LBA0225, light blue triangles), the PTS EIICBA (LBA0725, yellow squares), the second phospho-β-glucosidase (LBA0726, lilac squares) and the double phospho-β-glucosidase mutant (LBA0225/LBA0726, black stars). The color scheme is consistent with that used for the gene loci in FIG. 2.

NCK2418 (ΔLBA0227) = assay: Phenotypic growth analysis of deletion mutant (PTS EIIC); assay type: cell-based, Lactobacillus acidophilus; details: compared with background Δupp strain
Procedure: as §1, §2
To establish the functional significance of these two loci, single deletions of each PTS EII and P-Bgl gene, and a double deletion of both P-Bgl genes were constructed using the upp-based counter-selectable gene replacement system (Table 2) and the growth phenotypes of the mutant strains were analyzed (FIG. 3). […]

Row | SMILES | reduction of growth on inactivation of the EIICBA (LBA0725) (NCK2422 (ΔLBA0725)) | growth of the ΔLBA0725 mutant (inactive PTS EIICBA) (NCK2422 (ΔLBA0725)) | growth of the ΔLBA0227 mutant (inactive EIIC) (NCK2418 (ΔLBA0227))
1 | N#C[C@H](O[C@@H]1O[C@H](CO[C@@H]2O[C@H](CO)[C@@H](O)[C@H](O)[C@H]2O)[C@@H](O)[C@H](O)[C@H]1O)c1ccccc1 [Amygdalin] | about 50% | severely reduced | abolished
2 | O=c1ccc2cc(O[C@@H]3O[C@H](CO)[C@@H](O)[C@H](O)[C@H]3O)c(O)cc2o1 [Esculin] |  | abolished | invariant
3 | OCc1ccccc1O[C@@H]1O[C@H](CO)[C@@H](O)[C@H](O)[C@H]1O [Salicin] |  | abolished | invariant
